Reference: US20100144860A1, “Transglutaminase Inhibitor Comprising EGCG And A Method For Producing Thereof” (priority 2007, published 2010)

Biological target: T1, Transglutaminase 2 (Cavia cutleri, UniProt P08587)
T1 construct: purchased Sigma-Aldrich T5398
T1 sequence (P08587 1-690): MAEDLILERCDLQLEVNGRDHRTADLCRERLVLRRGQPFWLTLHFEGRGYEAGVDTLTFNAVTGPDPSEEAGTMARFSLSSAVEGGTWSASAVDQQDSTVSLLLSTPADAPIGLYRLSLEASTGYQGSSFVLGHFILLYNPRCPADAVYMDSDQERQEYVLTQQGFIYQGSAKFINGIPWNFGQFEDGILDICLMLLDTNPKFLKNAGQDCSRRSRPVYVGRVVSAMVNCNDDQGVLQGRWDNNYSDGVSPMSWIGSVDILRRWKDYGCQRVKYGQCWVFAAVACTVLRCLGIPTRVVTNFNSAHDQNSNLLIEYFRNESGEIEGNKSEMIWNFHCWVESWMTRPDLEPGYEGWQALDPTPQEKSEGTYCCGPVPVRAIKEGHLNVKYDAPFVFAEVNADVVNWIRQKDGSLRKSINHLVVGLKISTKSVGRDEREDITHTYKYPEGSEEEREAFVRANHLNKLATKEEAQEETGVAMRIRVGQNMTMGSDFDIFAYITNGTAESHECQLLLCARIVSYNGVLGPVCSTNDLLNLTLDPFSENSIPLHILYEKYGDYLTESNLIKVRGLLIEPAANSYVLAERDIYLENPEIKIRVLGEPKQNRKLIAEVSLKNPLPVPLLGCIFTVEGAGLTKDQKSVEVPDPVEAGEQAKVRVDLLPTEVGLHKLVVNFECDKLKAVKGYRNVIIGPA
Experiment: In vitro assay for inhibition of transglutaminase activity ([1,4-14C] putrescine incorporation into succinylated casein)
Type: biochemical
Details: for activity of transglutaminase, Mean: mean of three assays, relative to DMSO control; for activity of transglutaminase, Assay 1 / activity of transglutaminase, Assay 2 / activity of transglutaminase, Assay 3: radioactivity compensated by DMSO-control group (=1.0000)
Procedure: To measure the inhibitory activity of EGCG which competes with putrescine, the transglutaminase-catalyzed reaction between [1,4,-^14C] putrescine and succinylated casein were observed.
Succinylated casein was purchased from Calbiochem (Cat. No. 573464), and 1 g of the powder was dissolved in 50 ml of a reaction buffer solution containing 5 mM DTT (0.1 M Tris-acetate (pH 8.0), 10 mM CaCl2, 0.15 M NaCl, 1.0 mM EDTA). This solution was stored in a deep freezer for further use. [1,4-^14C] Putrescine dihydrochloride was purchased from GE Healthcare (Cat. No. CFA301), and the stock solution was diluted with distilled water to yield a radiological dose of 5 μCi/ml. Transglutaminase 2 was purchased from Sigma-Aldrich (Cat. No. T5398), and diluted with distilled water to yield a final concentration of 1 unit/ml. EGCG (Sigma-Aldrich, Cat. No. E4143) was dissolved in DMSO at a concentration of 10 mM to prepare its stock solution, and the stock solution was diluted with DMSO to prepare solutions having various concentrations.
450 μl of succinylated casein solution and 50 μl of [1,4-^14C] putrescine dihydrochloride solution were mixed together to prepare a substrate solution. 96 μl of the reaction buffer, 3 μl of the stock solution of EGCG, and 1 μl of the stock solution of transglutaminase were mixed together to prepare each sample, followed by incubation at 37° C. for 10 min. 500 μl of the substrate solution and 100 μl of sample solution were mixed well, and the mixture was incubated at 37° C. for 2 hrs, before termination with 4.5 ml of cold (4° C.) 7.5% TCA. The final solution was stored at 4° C. for 1 hr. The TCA-precipitates were filtered through a GF/glass fiber filter, washed with 25 ml of cold 5% TCA, and dried. Radioactivity of crosslinked protein was measured using a (β-counter (Beckman Coulter), and compensated by the activity of DMSO-control group as a standard. The activity of transglutaminase was represented by the measured values. The assay was repeated three times under the same conditions, and the results are shown in the following Table 1.

**Q.** How did the “activity of transglutaminase, Mean” value (EGCG 0.5 μM) turn out when `O=C(O[C@@H]1Cc2c(O)cc(O)cc2O[C@@H]1c1cc(O)c(O)c(O)c1)c1cc(O)c(O)c(O)c1` [EGCG, [2R, 3R]-2[3,4,5-trihydroxyphenyl]-3,4-dihydro-1[2H]-benzopyran-3,5,7-triol-3-[3,4,5-trihydroxybenzonate]] was run?
**A.** Its value is 0.5383.

**Q.** What about the “activity of transglutaminase, Assay 1” value (EGCG 0.5 μM) of the same compound?
**A.** Its value is 0.5166.

**Q.** And the “activity of transglutaminase, Assay 2” value (EGCG 0.5 μM)?
**A.** The value was 0.5690.

**Q.** And the “activity of transglutaminase, Assay 3” value (EGCG 0.5 μM)?
**A.** The value was 0.5295.

**Q.** What about the “activity of transglutaminase, Mean” value (EGCG 1.0 μM) of the same compound?
**A.** Its value is 0.3677.

**Q.** And the “activity of transglutaminase, Assay 1” value (EGCG 1.0 μM)?
**A.** The value was 0.3950.

**Q.** And the “activity of transglutaminase, Assay 2” value (EGCG 1.0 μM)?
**A.** The value was 0.3873.

**Q.** And the “activity of transglutaminase, Assay 3” value (EGCG 1.0 μM)?
**A.** Its value is 0.3207.

**Q.** And the “activity of transglutaminase, Mean” value (EGCG 2.0 μM)?
**A.** The value was 0.2001.

**Q.** And the “activity of transglutaminase, Assay 1” value (EGCG 2.0 μM)?
**A.** The value was 0.2009.

**Q.** What about the “activity of transglutaminase, Assay 2” value (EGCG 2.0 μM) of the same compound?
**A.** Its value is 0.2288.

**Q.** What about the “activity of transglutaminase, Assay 3” value (EGCG 2.0 μM) of the same compound?
**A.** Its value is 0.1707.

**Q.** What about the “activity of transglutaminase, Mean” value (EGCG 3.0 μM) of the same compound?
**A.** The value was 0.1765.

**Q.** What about the “activity of transglutaminase, Assay 1” value (EGCG 3.0 μM) of the same compound?
**A.** The value was 0.1911.

**Q.** And the “activity of transglutaminase, Assay 2” value (EGCG 3.0 μM)?
**A.** The value was 0.1902.

**Q.** What about the “activity of transglutaminase, Assay 3” value (EGCG 3.0 μM) of the same compound?
**A.** Its value is 0.1482.

**Q.** And the “activity of transglutaminase, Mean” value (EGCG 5.0 μM)?
**A.** The value was 0.1064.

**Q.** And the “activity of transglutaminase, Assay 1” value (EGCG 5.0 μM)?
**A.** The value was 0.1246.

**Q.** And the “activity of transglutaminase, Assay 2” value (EGCG 5.0 μM)?
**A.** Its value is 0.0947.

**Q.** What about the “activity of transglutaminase, Assay 3” value (EGCG 5.0 μM) of the same compound?
**A.** The value was 0.1000.

**Q.** And the “activity of transglutaminase, Mean” value (EGCG 10.0 μM)?
**A.** The value was 0.0879.

**Q.** What about the “activity of transglutaminase, Assay 1” value (EGCG 10.0 μM) of the same compound?
**A.** The value was 0.1029.

**Q.** And the “activity of transglutaminase, Assay 2” value (EGCG 10.0 μM)?
**A.** Its value is 0.0726.

**Q.** And the “activity of transglutaminase, Assay 3” value (EGCG 10.0 μM)?
**A.** The value was 0.0881.

**Q.** What about the “activity of transglutaminase, Mean” value (EGCG 50.0 μM) of the same compound?
**A.** The value was 0.0871.

**Q.** And the “activity of transglutaminase, Assay 1” value (EGCG 50.0 μM)?
**A.** The value was 0.0861.

**Q.** What about the “activity of transglutaminase, Assay 2” value (EGCG 50.0 μM) of the same compound?
**A.** Its value is 0.0903.

**Q.** What about the “activity of transglutaminase, Assay 3” value (EGCG 50.0 μM) of the same compound?
**A.** Its value is 0.0849.

**Q.** What about the “inhibition of the activity of transglutaminase (in words)” value (FIG. 1, relative inhibition activities) of the same compound?
**A.** Its value is “inhibited in an EGCG concentration-dependent manner”.

**Q.** And the IC50 (calculated by nonlinear regression from mean values)?
**A.** The IC50 was 517 nM.
